Measurements as given in US8778966B2, “Quinolinone derivatives as PARP and tank inhibitors” (Janssen Pharmaceutica, NV, priority 2007, dated 2014).

Test system: tubulin
Experiment: Tubulin polymerization assay
Format: biochemical
Parameters: key: a compound showing 0 to 50% inhibition at 20 μM is reported as score 1; Score 2 compounds are defined as compound showing more than 50% inhibition at 20 μM and less than 50% inhibition at 5 μM; a compound showing more than 50% inhibition at 5 μM is reported as score 3
Settings: tested at 20 μM and 5 μM
Summary of the method: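 Cytoskeleton kit tubulin was run in a 10 µl final volume at 37 °C, with fluorescence read every minute for 1 h. Polymerization was taken as the maximum slope (4-point linear regression) and expressed as % of no-compound control. Compounds were tested at 20 µM, then at 5 µM if inhibition exceeded 50%, and scored by % inhibition.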

Compound	tubulin polymerisation score
CCc1cc2ccc(C(C)(C#N)Cc3nc4ccccc4n3C)cc2[nH]c1=O (stereo not drawn) [Compound 338]	2
CCc1cc2ccc(C(C)(C#N)Cc3nc(Cl)cc(N(C)C)n3)cc2[nH]c1=O (stereo not drawn) [Compound 359]	2
CCc1cc2ccc(C(C)(C#N)Cc3cccc(CO)n3)cc2[nH]c1=O (stereo not drawn) [Compound 345]	2
CCc1cc2ccc(C(C)(C#N)Cc3ccc(C)nc3)cc2[nH]c1=O (stereo not drawn) [Compound 327]	1 (a compound showing 0 to 50% inhibition at 20 μM is reported as score 1)
Cc1cc2ccc([C@](C)(C#N)Cc3cccc(C#N)c3)cc2[nH]c1=O [Compound 36]	1 (a compound showing 0 to 50% inhibition at 20 μM is reported as score 1)
CCc1cc2ccc(C(C)(C#N)Cc3cccc(OC)n3)cc2[nH]c1=O (stereo not drawn) [Compound 353]	2
C#Cc1cccc(C[C@@](C)(C#N)c2ccc3cc(CC)c(=O)[nH]c3c2)c1 [Compound 3]	2
CCc1cc2ccc(C(C)(C#N)Cc3cccc(CN)c3)cc2[nH]c1=O (stereo not drawn) [Compound 290]	1 (a compound showing 0 to 50% inhibition at 20 μM is reported as score 1)
CCc1cc2ccc(C(C#N)(CC)Cc3ccccc3)cc2[nH]c1=O (stereo not drawn) [Compound 32]	1 (a compound showing 0 to 50% inhibition at 20 μM is reported as score 1)
COc1cc(OC)nc(CC(C)(C#N)c2ccc3cc(C)c(=O)[nH]c3c2)n1 (stereo not drawn) [Compound 308]	2
CCc1cc2ccc(C(C)(C#N)Cc3cccc(C#N)n3)cc2[nH]c1=O (single isomer, unassigned) [Compound 206]	1 (a compound showing 0 to 50% inhibition at 20 μM is reported as score 1)
CCc1cc2ccc([C@@](C)(C#N)Cc3cccc(C#N)c3)cc2[nH]c1=O (single isomer, unassigned) [Compound 268]	1 (a compound showing 0 to 50% inhibition at 20 μM is reported as score 1)
CCc1cc2ccc(C(C)(C#N)Cc3cccc(C#N)n3)cc2[nH]c1=O (single isomer, unassigned) [Compound 207]	3 (a compound showing more than 50% inhibition at 5 μM is reported as score 3)
COc1ccccc1-c1nc(CC(C)(C#N)c2ccc3cc(C)c(=O)[nH]c3c2)no1 (stereo not drawn) [Compound 33]	1 (a compound showing 0 to 50% inhibition at 20 μM is reported as score 1)
CCc1cc2ccc(C(C)(C#N)Cc3cc(OC)nc(OC)n3)cc2[nH]c1=O (stereo not drawn) [Compound 358]	2
C#Cc1cccc(C[C@](C)(C#N)c2ccc3cc(CC)c(=O)[nH]c3c2)c1 [Compound 2]	1 (a compound showing 0 to 50% inhibition at 20 μM is reported as score 1)
CCc1cc2ccc([C@](C)(C#N)Cc3cccc(C#N)c3)cc2[nH]c1=O (single isomer, unassigned) [Compound 269]	2
Cc1cc2ccc(C(C)(C#N)Cc3cccc(Cl)c3)cc2[nH]c1=O (stereo not drawn) [Compound 37]	1 (a compound showing 0 to 50% inhibition at 20 μM is reported as score 1)
CCc1cc2ccc(C(C)(C#N)Cc3cccc(C#N)n3)cc2[nH]c1=O (stereo not drawn) [Compound 329]	3 (a compound showing more than 50% inhibition at 5 μM is reported as score 3)
CCc1cc2ccc(C(C)(C#N)Cc3nccc(OC)n3)cc2[nH]c1=O (stereo not drawn) [Compound 360]	2
CCc1cc2ccc(C(C)(C#N)Cc3cccc(OCCO)c3)cc2[nH]c1=O (stereo not drawn) [Compound 262]	2
